According to ChEMBL document CHEMBL4219187, “A new target for Alzheimer's disease: A small molecule SERCA activator is neuroprotective in vitro and improves memory and cognition in APP/PS1 mice” (Bioorg Med Chem Lett, 2018):
Calls of active or inactive are those of the source. The rule behind the calls is not given here.

Key:
[1] = Half life in mouse hepatocytes; format: ADME, cell-based, Hepatocyte
[2] = Half life in human hepatocytes; format: ADME, cell-based, Hepatocyte
[3] = Half life in mouse microsomes; format: ADME, Microsome
[4] = Half life in human microsomes; format: ADME, Microsome
[5] = Half life in mouse plasma; format: ADME, cell-free
[6] = Half life in human plasma; format: ADME, cell-free
[7] = Clearance in mouse at 2 mg/kg, po; format: ADME, organism-based; settings: in vivo
[8] = biological target: Voltage-gated inwardly rectifying potassium channel KCNH2 (Homo sapiens, UniProt Q12809); experiment: Inhibition of human ERG up to 10 uM
[9] = Inhibition of CYP450 (unknown origin) up to 5 uM; format: ADME; settings: human
[10] = Oral bioavailability in mouse at 50 mg/kg; format: ADME, organism-based; settings: in vivo
[11] = system: Mus musculus; experiment: Toxicity in mouse at 50 mg/kg, po; format: organism-based; settings: in vivo
[12] = Ratio of drug level in brain to plasma in mouse measured at 1 hr post dose; format: ADME, cell-free; settings: brain and plasma, read-out: BPR
[13] = system: Mus musculus; experiment: Cognition enhancement activity in APPSWE/PSEN1dE9 double-transgenic mouse model of Alzheimer's disease assessed as decrease in total swim distance for hidden platform at 10 mg/kg, ip administered daily for 5 days per week for 4 weeks by Morris water maze test; format: functional, organism-based
[14] = system: Mus musculus; experiment: Antialzheimer activity in APPSWE/PSEN1dE9 double-transgenic mouse model of Alzheimer's disease assessed as decrease in impairment of motor coordination at 10 mg/kg, ip administered daily for 5 days per week for 4 weeks by rotarod test; format: functional, organism-based
[15] = system: Mus musculus; experiment: Antidepressant activity in APPSWE/PSEN1dE9 double-transgenic mouse model of Alzheimer's disease assessed as reduction in immobility time at 10 mg/kg, ip administered daily for 5 days per week for 4 weeks by tail suspension test; format: functional, organism-based
[16] = system: HeLa; experiment: Activation of SERCA in human HeLa cells assessed as protection against thapsigargin induced depletion of ER calcium stores at 10 uM up to 150 secs by cameleon plasmid-based fluorescence assay; format: cell-based
[17] = species on record: Rattus norvegicus; experiment: Cytoprotection against thapsigargin induced cell death in rat CSM14.1 cells assessed as increase in cell viability preincubated for 2 hrs followed by thapsigargin induction measured after 20 hrs by ATPlite assay; format: functional, cell-based
[18] = Cytotoxicity against rat CSM14.1 cells assessed as cell viability after 20 hrs by ATPlite assay relative to control; format: cell-based; settings: read-out: Activity

Voltage-gated inwardly rectifying potassium channel KCNH2, sequence (Q12809 whole entry): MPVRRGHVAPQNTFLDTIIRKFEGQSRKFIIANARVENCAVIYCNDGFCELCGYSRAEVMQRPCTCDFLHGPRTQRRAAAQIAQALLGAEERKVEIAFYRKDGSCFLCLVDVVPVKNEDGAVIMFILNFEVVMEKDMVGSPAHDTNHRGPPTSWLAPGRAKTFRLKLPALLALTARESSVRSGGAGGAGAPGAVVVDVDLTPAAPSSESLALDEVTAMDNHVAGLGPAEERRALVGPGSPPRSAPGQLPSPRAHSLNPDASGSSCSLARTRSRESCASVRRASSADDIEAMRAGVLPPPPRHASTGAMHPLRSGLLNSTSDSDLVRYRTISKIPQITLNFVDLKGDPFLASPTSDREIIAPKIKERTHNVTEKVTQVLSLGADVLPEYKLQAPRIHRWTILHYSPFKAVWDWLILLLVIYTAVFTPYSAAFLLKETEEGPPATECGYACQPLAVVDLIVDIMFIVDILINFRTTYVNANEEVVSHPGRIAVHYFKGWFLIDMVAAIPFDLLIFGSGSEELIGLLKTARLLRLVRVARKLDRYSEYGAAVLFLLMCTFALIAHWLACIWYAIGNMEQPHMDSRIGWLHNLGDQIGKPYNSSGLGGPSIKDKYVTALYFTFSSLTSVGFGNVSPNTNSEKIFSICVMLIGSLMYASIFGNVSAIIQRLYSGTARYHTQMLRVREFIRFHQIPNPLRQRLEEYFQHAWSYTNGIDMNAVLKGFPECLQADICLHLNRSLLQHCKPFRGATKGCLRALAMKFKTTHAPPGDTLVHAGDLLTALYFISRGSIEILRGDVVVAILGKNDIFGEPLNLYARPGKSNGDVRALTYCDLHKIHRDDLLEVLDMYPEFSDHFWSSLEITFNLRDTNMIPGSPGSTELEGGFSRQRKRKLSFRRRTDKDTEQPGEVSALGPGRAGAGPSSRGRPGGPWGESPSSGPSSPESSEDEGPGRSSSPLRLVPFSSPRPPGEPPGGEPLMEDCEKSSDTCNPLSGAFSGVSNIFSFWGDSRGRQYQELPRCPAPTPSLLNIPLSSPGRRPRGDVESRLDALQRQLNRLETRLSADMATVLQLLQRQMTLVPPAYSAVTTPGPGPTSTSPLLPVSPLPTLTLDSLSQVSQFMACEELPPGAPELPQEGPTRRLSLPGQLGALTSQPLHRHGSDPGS

Cc1ccc2cccc(NC(=O)c3ccc(OC(C)C)cc3)c2n1
half-life [1]: 2 min | half-life [2]: 45 min | half-life [3]: 2 min | half-life [4]: 15 min | half-life [5]: 140 min | half-life [6]: > 300 min | CL/F [7]: 251 mL/min/kg | inhibition (INH) [8]: Active | inhibition (INH) [9]: Not Active | bioavailability [10]: 37% | Activity [11]: Non-Toxic | Kp at 1 h [12]: 3 | Activity [13]: Active | Activity [14]: Active | Activity [15]: Active | Activity [16]: Active | Activity [17]: Dose-dependent effect | viability at 20 h [18]: 100%
